Read-outs that look alike come from different tables or passages of the source. Peptide text beside a SMILES is read from it.
What was measured:
INS‐1E β‐cells [1] = experiment: ICC of Antp‐QBP1 uptake (anti‐biotin) in INS‐1E β‐cells; type: cell-based, rat; conditions: 48 h; for anti‐biotin (Red‐647) fluorescence intensity per cell: uptake by ICC
Method: (§1) Cells were seeded in 24‐well plates (Corning, cat. #3526) on 12 mm coverslips pre‐treated with 1 mg/mL poly‐D‐lysine (Merck, cat. #P2636) in borate buffer (pH 8.0) at a density of 200,000 cells/mL. […] Primary antibodies against hIAPP (rabbit anti‐hIAPP, 1:400; Sigma‐Aldrich), biotin (goat anti‐biotin, 1:200; Invitrogen, cat. # 31852), oligomers (A11, 1:400, Invitrogen, cat. # AHB0052) and fibrils (OC, 1:200, Millipore, cat. # AB2286) were applied overnight at 4°C. Fluorophore‐conjugated secondary antibodies (Invitrogen) were added for 1 h at RT in darkness, followed by DAPI nuclear staining for 15 min. Coverslips were mounted with ProLong Gold (Life Technologies) and imaged using either a Leica DMI 6000 fluorescence microscope or a Leica Stellaris 8 stimulated emission depletion (STED) super‐resolution microscope, both equipped with a 40× oil‐immersion objective.
ThT‐stained and ICC samples were imaged using a Leica Stellaris 8 STED super‐resolution confocal microscope (Leica Microsystems, Germany). For ThT imaging, samples in Ibidi μ‐Slide 4 Well ibiTreat coverslips were excited at 488 nm and emission was collected between 509–580 nm. For ICC, fluorophores were excited at 405 nm (DAPI; 420–480 nm, HyD S1), 488 nm (Alexa Fluor 488/FITC; 500–550 nm, HyD S2) and 653 nm (Alexa Fluor 647; 665–750 nm, HyD X3), all acquired sequentially in counting mode to prevent spectral overlap. […] Z‐stacks were collected in optimized mode to generate 3D reconstructions of ThT fluorescence and ICC labeling. Image processing and quantitative analysis were conducted using ImageJ/Fiji (NIH, USA). Specifically, a custom Fiji macro based on the “Find Maxima” algorithm was implemented to detect local intensity peaks across the selected fluorescence channels. Fluorescence intensity per cell (a.u.) was calculated as the total signal per field divided by the number of DAPI‐positive nuclei, and the number of fluorescence spots per cell was defined as total local maxima per field normalized to nuclei count. […]

INS‐1E β‐cells [2] = experiment: AlamarBlue metabolic activity, exogenous hIAPP oligomers
Method: Dried hIAPP or rIAPP peptide (0.5 mg) was reconstituted in 10 mM phosphate‐buffered saline (PBS, pH 7.4) with 2% DMSO and 2 mM sodium azide to a final concentration of 300 µM. rIAPP was included as a non‐amyloidogenic control peptide. After centrifugation at 16 000 x g for 50 min at 4°C to remove preformed aggregates, the supernatant (designated as “time zero”)—primarily populated by monomers—was used to initiate amyloidogenesis. Samples were vortexed and incubated at 25°C for 7 days without agitation to allow gradual formation of oligomers and fibrils. […] Aliquots were collected at different time points for biochemical characterization and β‐cells assays. For β‐cell assays involving extracellular hIAPP oligomers, samples were sonicated before use to disrupt early fibrils and enrich for oligomeric species.
(§2) The fusion peptide was N‐terminally biotinylated and the two peptides were separated by two glycine residues as flexible linkers to minimize steric hindrance: Biotin‐[…]. • – Cell culture . […] Viability was assessed using the CellTiter‐Glo Luminescent Cell Viability Assay (Promega, Madison, WI, USA), which quantifies ATP content as an indicator of metabolically active cells, and AlamarBlue (Invitrogen, Thermo Fisher), based on the reduction of resazurin to the fluorescent product resorufin in metabolically active cells, following the manufacturer's instructions. Luminescence (CellTiter‐Glo) and fluorescence (AlamarBlue; Ex 560 nm / Em 590 nm) were recorded using a FLUOstar Omega microplate reader (BMG LABTECH). Morphological changes were monitored by phase‐contrast microscopy (Leitz DM IRB, Leica, Germany) equipped with a Peltier temperature controller (Linkam, UK) set to 37°C and a Leica K5 camera. Images from at least three fields per condition were acquired at 10× and 20× magnification and analyzed with Leica LAS AF Lite software.

INS‐1E β‐cells [3] = experiment: CellTiter‐Glo ATP viability, exogenous hIAPP oligomers; conditions: 48 h, 16.7 mM glucose
Method: Dried hIAPP or rIAPP peptide (0.5 mg) was reconstituted in 10 mM phosphate‐buffered saline (PBS, pH 7.4) with 2% DMSO and 2 mM sodium azide to a final concentration of 300 µM. rIAPP was included as a non‐amyloidogenic control peptide. After centrifugation at 16 000 x g for 50 min at 4°C to remove preformed aggregates, the supernatant (designated as “time zero”)—primarily populated by monomers—was used to initiate amyloidogenesis. Samples were vortexed and incubated at 25°C for 7 days without agitation to allow gradual formation of oligomers and fibrils. […] Aliquots were collected at different time points for biochemical characterization and β‐cells assays. […]
as §2, with “Morphological changes were monitored by phase‐contrast microscopy (Leitz DM IRB, Leica, Germany) equipped with a Peltier temperature controller (Linkam, UK) set to 37°C and a Leica K5 camera. Images from at least three fields per condition were acquired at 10× and 20× magnification and analyzed with Leica LAS AF Lite software.” left out

INS‐1E‐hIAPP cells = experiment: ICC of Antp‐QBP1 uptake in INS‐1E‐hIAPP cells; type: cell-based, rat; conditions: Antp‐QBP1 10 µM, 48 h
Method: (§3) Rat insulinoma–derived pancreatic β‐cell lines (INS‐1E, INS‐1E‐hIAPP, and INS‐1E‐Ct) were kindly provided by Dr. Anna Novials (IDIBAPS, Barcelona) and characterized as previously described. INS‐1E‐hIAPP cells, which stably express human IAPP, were used as an overexpression model, whereas INS‐1E‐Ct cells transfected with an empty vector served as controls.
as §1

INS‐1E‐Ct cells = experiment: CellTiter‐Glo ATP viability, empty‐vector control cells; type: cell-based, rat; conditions: Antp‐QBP1 5–20 µM, 48 h
From the text: as §3
• – hIAPP overexpression conditions .

Rin1056A β‐cells = conditions: cited from earlier work
[4] = tested on: hIAPP‐induced cytotoxicity; conditions: cited from earlier work
hIAPP = biological target: T1, hIAPP (Homo sapiens, UniProt P10997); experiment: 1D 1H NMR loss of hIAPP signal (oligomerization kinetics); type: biochemical; conditions: 50 µM hIAPP, three‐fold excess (150 µM) inhibitor, PBS, 37°C
T1 construct: hIAPP (1–37; cat. # RP11278); purchased GenScript (Netherlands) RP11278; host or cells: chemical synthesis
T1 sequence (P10997 34-70): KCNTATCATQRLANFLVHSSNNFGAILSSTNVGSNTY
Method: • – hIAPP/QBP1 interaction experiments. 1D ^1H and 2D ^1H‐^1H total correlation spectroscopy (TOCSY) (mixing time = 60 ms) and 2D ^1H‐^1H nuclear Overhauser effect spectroscopy (NOESY) (mixing times = 80 and 250 ms) spectra were recorded at 10°C in 90% H2O/ 10% D2O with 1 mM K2HPO4 and 1 mM sodium acetate buffer (pH 5.5) on 100 µM hIAPP (pre‐monomerized in a small volume of hexadeuterated DMSO) on a Bruker 800 MHz (^1H) spectrometer equipped with a ^1H, ^13C, ^15N cryoprobe, Neo console and z‐gradients. These conditions were chosen because they were previously reported to greatly slow the aggregation of hIAPP, affording time to allow the spectra to be recorded. The solutions also contained 100 µM DSS as the internal chemical shift reference. Spectra were assigned with the aid of the program POKY [62], and the assignments have been deposited in the BMRB database; with access code = 53405. […] The spectra were then analyzed for changes which could reveal atomic‐level details on the interaction between hIAPP and QBP1. • – hIAPP aggregation experiments. A second set of NMR experiments were performed in PBS (90% H2O/ 10% D2O) at 37°C. […] These experiments were performed on a Bruker 600 MHz (^1H) spectrometer equipped with a ^1H, ^13C, ^15N, ^31P cryoprobe, Neo console, and z‐gradients. The final sample pH was verified in situ based on the phosphate ^3 ^1P chemical shift.

[5] = peptide alone, 48 h, Alamar Blue HS

CC[C@H](C)[C@H](NC(=O)CNC(=O)[C@@H]1CCCN1C(=O)[C@H](Cc1c[nH]c2ccccc12)NC(=O)[C@H](Cc1c[nH]c2ccccc12)NC(=O)[C@H](CCCCN)NC(=O)[C@H](Cc1c[nH]c2ccccc12)NC(=O)CNC(=O)CNC(=O)[C@H](CCCCN)NC(=O)[C@H](CCCCN)NC(=O)[C@H](Cc1c[nH]c2ccccc12)NC(=O)[C@H](CCCCN)NC(=O)[C@H](CCSC)NC(=O)[C@H](CCCNC(=N)N)NC(=O)[C@H](CCCNC(=N)N)NC(=O)[C@H](CC(N)=O)NC(=O)[C@H](CCC(N)=O)NC(=O)[C@H](Cc1ccccc1)NC(=O)[C@H](Cc1c[nH]c2ccccc12)NC(=O)[C@@H](NC(=O)[C@H](CCCCN)NC(=O)[C@@H](NC(=O)[C@H](CCC(N)=O)NC(=O)[C@H](CCCNC(=N)N)NC(=O)CCCC[C@@H]1SC[C@@H]2NC(=O)N[C@@H]21)[C@@H](C)CC)[C@@H](C)CC)C(=O)N[C@@H](Cc1ccccc1)C(=O)O [Antp‐QBP1]
number of intracellular Red‐647 fluorescent spots per cell vs hIAPP alone (INS‐1E β‐cells [1]; 10 µM Antp‐QBP1 alone or with 10 µM hIAPP): significantly increased
anti‐biotin (Red‐647) fluorescence intensity per cell (INS‐1E β‐cells [1]; 10 µM Antp‐QBP1 alone): 400–600 a.u./cell
anti‐biotin (Red‐647) fluorescence intensity per cell (INS‐1E β‐cells [1]; 10 µM Antp‐QBP1 with 10 µM hIAPP oligomers): ~200 a.u./cell
effect of peptide alone on metabolic activity (INS‐1E β‐cells [2]; [5]): no significant effect
effect of peptide alone on ATP levels (INS‐1E β‐cells [3]): did not alter ATP levels
intracellular delivery by immunostaining (INS‐1E‐hIAPP cells): efficient intracellular delivery
effect on ATP levels in control (Ct) cells (INS‐1E‐Ct cells): did not alter ATP levels

CC[C@H](C)[C@H](NC(=O)CNC(=O)[C@@H]1CCCN1C(=O)[C@H](Cc1c[nH]c2ccccc12)NC(=O)[C@H](Cc1c[nH]c2ccccc12)NC(=O)[C@H](CCCCN)NC(=O)[C@H](Cc1c[nH]c2ccccc12)NC(C)=O)C(=O)N[C@@H](Cc1ccccc1)C(N)=O [QBP1] (Ac-WKWWPGIF-NH2)
effect of peptide alone on metabolic activity (INS‐1E β‐cells [2]; [5]): no significant effect

CC(C)C[C@H](NC(=O)[C@H](CC(N)=O)NC(=O)[C@H](CC(N)=O)NC(=O)[C@H](CO)NC(=O)[C@H](CO)NC(=O)[C@H](CCCNC(=N)N)NC(=O)[C@@H](NC(=O)[C@H](CC(C)C)NC(=O)[C@H](Cc1ccccc1)NC(=O)[C@H](CC(N)=O)NC(=O)[C@H](C)NC(=O)[C@H](CC(C)C)NC(=O)[C@H](CCCNC(=N)N)NC(=O)[C@H](CCC(N)=O)NC(=O)[C@@H](NC(=O)[C@H](C)NC(=O)[C@@H]1CSSC[C@H](NC(=O)[C@@H](N)CCCCN)C(=O)N[C@@H](CC(N)=O)C(=O)N[C@@H]([C@@H](C)O)C(=O)N[C@@H](C)C(=O)N[C@@H]([C@@H](C)O)C(=O)N1)[C@@H](C)O)C(C)C)C(=O)NCC(=O)N1CCC[C@H]1C(=O)N[C@H](C(=O)N[C@@H](CC(C)C)C(=O)N1CCC[C@H]1C(=O)N1CCC[C@H]1C(=O)N[C@H](C(=O)N[C@@H](CC(N)=O)C(=O)N[C@H](C(=O)NCC(=O)N[C@@H](CO)C(=O)N[C@@H](CC(N)=O)C(=O)N[C@H](C(=O)N[C@@H](Cc1ccc(O)cc1)C(N)=O)[C@@H](C)O)C(C)C)[C@@H](C)O)C(C)C [rIAPP, reference compound]
effect of peptide alone on metabolic activity (INS‐1E β‐cells [2]): did not affect metabolic activity

D‐ANFLVH
molar excess relative to IAPP required to prevent toxicity (Rin1056A β‐cells): ten‐fold molar excess

FLPNF
concentration required to reduce hIAPP‐induced cytotoxicity [4]: approximately 200 µM

epigallocatechin‐3‐gallate [EGCG]
slowing of the rate of hIAPP oligomerization (NMR signal loss) (hIAPP): ~50%

Reference: article PMC13326014 (Advanced Science, 2026)
